“And” between values parts separate entries of the source, which are not always exact repeats. Identical values can stand only once.
Columns and labels:
[1] = tested on: multiple myeloma patients; assay: Bortezomib data analysis: combined Ig expression score (Affymetrix microarray, CD138+ tumor cells, GSE9782) versus response and time-to-progression on single-agent bortezomib or dexamethasone; format: in vivo, human; conditions: bortezomib-treated patients
Text: Publicly available RNA microarray data in tab-delimited text format were downloaded from the Gene Expression Omnibus (GEO ID: GSE9782).
A list of 55 probes from this Affymetrix microarray platform that map to genes encoding immunoglobulin (Ig)-related proteins was obtained from Rody et al. Addition File 5. This example tested for an association between normalized intensity of each of these 55 probes and bortezomib response, which was labeled as “PGx_Responder=R” in the dataset. […] The finding of 13 significant associations is far more than expected by chance (Binomial P-value=2×10^−6). […] It is not surprising that many probes are not associated, given that some map to rarer, patient-specific portions of the Ig loci and that others map to regions that are unusually highly-expressed, and therefore not well-measured with microarray technology (i.e., their fluorescence is likely to be saturated).
Patients were classified as achieving complete response (CR), partial response (PR), minimal response (MR), no change (NC), or progressive disease (PD), using European Group for Bone Marrow Transplantation criteria. In brief, PD requires 25% increase in paraprotein, whereas MR, PR, and CR require at least 25%, 50%, and 100% decreases, respectively.
Various mean IG expression cutoffs were considered to maximize the clinical utility of a potential diagnostic test. Ultimately, a cutoff of 0.29 (defining “IG-High”>=0.29 and “IG-Low”<0.29) was chosen, predicting response in the training data with 71% sensitivity and 62% specificity. This same cutoff was then applied to time-to-progression (TTP) data for these patients, finding that IG-High patients in this cohort have a 1.4-fold longer median TTP than IG-Low patients (8.4 months vs. 6.0 months; log-rank P-value=0.025).

[2] = tested on: high and low Ig-expressing hybridoma cell lines; assay: Drug sensitivity assay on two additional pairs of high and low Ig-expressing hybridoma cell lines; format: cell-based
[3] = tested on: Line A (high Ig) hybridoma cells; assay: Hybridoma sensitivity to carfilzomib, CellTiter-Glo Luminescent Cell Viability Assay, Line A; format: cell-based; conditions: 72h treatment, viability vs no treatment control, read-out: inhibitory concentration (IC50) on the cells of Line A
Method: (§1) The two hybridoma cell lines were tested for sensitivity to carfilzomib. Cells of each of Line A (high Ig) and Line B (low Ig) were treated with various doses (40 nM, 30 nM, 20 nM, 15 nM, l0 nM, 7.5 nM, 5 nM, 3.75 nM and 2.5 nM) of carfilzomib for 72h. The viability of the cells were then measured by CellTiter-Glo® Luminescent Cell Viability Assay (Cat. No. G7570; Promega Corporation) and compared to no treatment control.

IG expression = IG expression in tumor sample of one patient at screening and on Cycle 1 Day 2 of single-agent carfilzomib (RNA-Seq); format: in vivo, human
Method: (§2) Bone marrow samples were aspirated from patients enrolled on Onyx-sponsored Phase 2 trials (NCT00511238, NCT00530816, and NCT00721734) prior to treatment with single-agent carfilzomib. Myeloma tumor cells were isolated by EasySep® immunomagnetic bead-based CD138+ selection (StemCell Technologies), re-suspended in TRIzol (Life Technologies) and frozen at […]. RNA was extracted from these samples with the PureLink RNA kit from Life Technologies (Cat #12183018A), following the recommended protocol for cells in TRIzol suspension, including the optional on-column DNase treatment. Elution volumes ranged from 75 μl-30 μl depending on the total number of cells going into isolation. ERCC control sequences from Life Technologies (ERCC ExFold RNA Spike-In Mix; Cat #4456739) were spiked in to all total RNA samples of sufficient quantity (Nanodrop yield>=150 ng) and quality (Bioanalyzer RIN>=7.0). For 500 ng input libraries, 1 μl of a 1:100 dilution of Mix 1 was added to each total RNA sample and for 150 ng input libraries, 3 μl of a 1:1000 dilution of Mix 1 was added to each total RNA sample. The resulting material was used to construct RNA-Seq libraries with Illumina's TruSeq RNA sample prep kit v2 (Cat #RS-122-2001), with PolyA selection included as the first step. Libraries were sequenced on Illumina's HiSeq 2000 with a target of 70 million fragments using 100×100 bp paired-end sequencing to generate 140 million reads per sample and the resulting raw data was QC-ed with metrics implemented in OmicSoft Array Studio v6.1.
(§3) Raw sequence reads were aligned and expression of genes & isoforms were quantified with a customized pipeline also built in Array Studio v6.1 [Jun]. This pipeline accepts Illumina adapter-stripped, paired-end reads that are trimmed at the […] if a base reaches PHRED quality score Q2 or lower. All reads are aligned to the transcriptome, which consists of the RefGene annotation of human hg19 supplemented with the more rich Ig loci annotations available from ENSEMBL. Reads aligned with mismatches and unaligned reads are subsequently aligned to the entire human genome, searching for novel exon junctions. Reads that remain unaligned are then aligned to the newly identified exon junctions. Alignments to the different references are compared and the highest scoring alignment is retained, or in the event of a tie, the transcriptome alignment is preferentially kept. Finally, all transcriptome alignment locations are translated to genomic coordinates to estimate the expected number of mappings per gene/isoform using the EM algorithm [Dempster]. The EM algorithm assigns reads with multiple alignment locations to an isoform by calculating the conditional probability of a read aligning to a specific isoform, given all other alignments. Weighting the total number of aligned reads with this probability yields posterior expected read counts for each transcript. The EM counts are normalized by the length of the genes/isoforms and number of reads in a library to yield FPKM values (Fragments Per Kilobase per Million reads). Between-sample normalization is achieved by 75th quantile normalization, where each sample is scaled by the median of 75th quantiles from all samples to yield quantile-normalized FPKM or “FPKQ” values.
To understand, how IG expression changes during treatment with proteasome inhibitors, the data was examined from one patient for which both a screening tumor sample and a sample collected on Cycle 1 Day 2 (C1D2) of treatment with single-agent carfilzomib were available.

[4] = tested on: multiple myeloma patients; assay: Carfilzomib data analysis: IGH/IGK/IGL and FCGR2B expression (RNA-Seq, FPKQ, CD138+ tumor cells) versus response, cutoffs with % sensitivity/% specificity (ROC) and time-to-progression on single-agent carfilzomib; format: in vivo, human
Method: as §2, §3
The FPKQ values corresponding to each “gene” of the three Ig loci, IGH (immunoglobulin heavy locus), IGK (immunoglobulin kappa locus) and IGL (immunoglobulin lambda locus), were summed to produce locus-level expression estimates.
Patients with a best overall response of minimal response (MR) or better (i.e., MR, partial response [PR], very good partial response [VGPR] and complete response [CR]) were grouped into a responder category (N=27; abbreviated as “R”) and patients with a best overall response of stable disease (SD) or worse (i.e., SD and progressive disease [PD]) were grouped into a non-responder category (N=33; abbreviated as “NR”). […]

[5] = tested on: Line B (low Ig) hybridoma cells; assay: Hybridoma sensitivity to carfilzomib, CellTiter-Glo Luminescent Cell Viability Assay, Line B; format: cell-based; conditions: 72h treatment, viability vs no treatment control
Method: as §1

[6] = Screening vs C1D2, one patient, single-agent carfilzomib
[7] = one patient, tumor sample on Cycle 1 Day 2 of single-agent carfilzomib
[8] = FCGR2B cutoffs 75 and 5 combined with IGH-High cutoff 140,000

For `CC(C)C[C@H](NC(=O)[C@H](Cc1ccccc1)NC(=O)c1cnccn1)B(O)O` [bortezomib], the “fold longer median TTP, IG-High vs IG-Low patients” value ([1]; cutoff 0.29, log-rank P-value=0.025) was 1.4 fold, the “median TTP (time-to-progression), IG-Low patients” value ([1]; mean IG expression score <0.29) was 6.0 months and the “median TTP (time-to-progression), IG-High patients” value ([1]; mean IG expression score >=0.29) was 8.4 months.
For `CC(C)C[C@H](NC(=O)[C@H](CCc1ccccc1)NC(=O)CN1CCOCC1)C(=O)N[C@@H](Cc1ccccc1)C(=O)N[C@@H](CC(C)C)C(=O)[C@@]1(C)CO1` [carfilzomib], the “sensitivity of high Ig-expressing hybridoma lines relative to low Ig-expressing lines” value [2] was “greater sensitivity”, the IC50 [3] was 10.4 nM and the “Fold-Change of expression, gene ICKV3-20” value (IG expression; [6]) was 4.11. For the same compound, the “Fold-Change of expression, gene IGHA1” value (IG expression; [6]) was 3.37, the “Fold-Change of expression, gene IGHV3-30” value (IG expression; [6]) was 3.63 and the “Fold-Change of expression, gene IGHV3-33” value (IG expression; [6]) was 3.77. For the same compound, the “Fold-Change of expression, gene IGKC” value (IG expression; [6]) was 3.88, the “IG expression lower in the sample collected one day after the first dose” value (IG expression; one patient, screening vs C1D2) was 3- to 4 fold and the “Expression C1D2, gene ICKV3-20” value (IG expression; [7]) was 9.6E+04. For the same compound, the “Expression C1D2, gene IGHA1” value (IG expression; [7]) was 1.3E+05, the “Expression C1D2, gene IGHV3-30” value (IG expression; [7]) was 2.4E+04 and the “Expression C1D2, gene IGHV3-33” value (IG expression; [7]) was 2.1E+04. The “Expression C1D2, gene IGKC” value (IG expression; [7]) was 1.4E+05, the “median TTP, IGH+FCGR2B-Negative patients” value [4, 8] was 1.2 months and the “median TTP, IGH+FCGR2B-Positive patients” value [4, 8] was 8.9 months. The “median TTP (time to progression), IGH-Low patients” value ([4]; IGH FPKQ <160,000) was 1.4 months and 1.3 months, the “median TTP (time to progression), IGH-High patients” value ([4]; IGH FPKQ >=160,000) was 7.6 months and 7.3 months and the “fold longer median TTP, IGH-High vs IGH-Low patients” value ([4]; log-rank P-value=0.003) was 6 fold and 5.4 fold. For the same compound, the “fold longer median TTP, IGH+FCGR2B-Positive vs IGH+FCGR2B-Negative patients” value ([4]; log-rank P-value=3×10−5) was 7.3 fold and the IC50 [5] was 24.3 nM.
